Reference: patent publication EP0413433A1, “Isoindolyl-imidazole-derivatives and pharmaceutical compositions” (Beecham Group p.l.c., priority 1989, dated 1991)

Legend:
[1] = test system: post-junctional α₂-adrenoceptors; assay: Post-junctional α₂-adrenoceptor antagonism: antagonism of noradrenaline contractions in ring segments of rabbit lateral saphenous vein; conditions: rabbit lateral saphenous vein rings, 37°C, Krebs medium
Experimental: To determine post-junctional α₂-adrenoceptor activity, ring segments of rabbit lateral saphenous vein were mounted in organ baths at 37 °C containing Krebs medium. Contractions of this tissue in response to noradrenaline are mediated via post-junctional α₂-adrenoceptors (Alabaster et al, 1985) and therefore the ability of α₂-adrenoceptor antagonists to pharmacologically antagonise such contractions gives a quantitive measure of the activity of compounds for this receptor subtype.

[2] = target: T1, α2-Adrenoceptor (Homo sapiens, UniProt P08913); assay: α2-Adrenoceptor binding: [³H] Rauwolscine displacement on human platelet membranes; conditions: [³H] Rauwolscine (0.5-1.0 nM), 30 minutes at 30°C, Cheng Prussoff equation, read-out: Binding Affinity. Ki
T1 construct: Rauwolscine; from tissue; host or cells: human platelet membranes
T1 sequence (P08913 1-465): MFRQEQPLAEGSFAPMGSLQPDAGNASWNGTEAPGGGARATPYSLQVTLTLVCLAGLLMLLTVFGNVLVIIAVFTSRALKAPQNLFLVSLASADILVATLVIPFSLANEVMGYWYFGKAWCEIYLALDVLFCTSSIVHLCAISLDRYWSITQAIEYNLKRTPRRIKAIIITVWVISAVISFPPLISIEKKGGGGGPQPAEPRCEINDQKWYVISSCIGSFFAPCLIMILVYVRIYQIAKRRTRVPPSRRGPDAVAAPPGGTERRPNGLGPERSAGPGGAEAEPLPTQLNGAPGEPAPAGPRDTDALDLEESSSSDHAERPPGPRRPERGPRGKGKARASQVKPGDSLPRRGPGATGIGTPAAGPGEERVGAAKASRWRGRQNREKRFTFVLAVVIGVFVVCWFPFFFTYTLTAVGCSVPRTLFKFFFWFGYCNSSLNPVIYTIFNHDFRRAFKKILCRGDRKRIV
Experimental: Human platelet membranes were incubated with [³H] Rauwolscine (0.5-1.0 nM) for 30 minutes at 30 °C with varying concentrates of the drug (0.1-10,000 nM). The binding assay was stopped by filtering and rinsing on GF/B glass fibre filters.
Binding Affinity (Ki) was calculated using the Cheng Prussoff equation.

[3] = test system: post-junctional α₁-adrenoceptors; assay: Post-junctional α₁-adrenoceptor agonism: contraction of rings of rabbit aorta in comparison with noradrenaline; conditions: agonist contraction in comparison with noradrenaline
Experimental: Post-junctional α₁ activity was determined using a method similar to that for post-junctional α₂ activity, but using rings of rabbit aorta. Contractions of this tissue are mediated by post-junctional α₁-adrenoceptors (Docherty et al. 1981), and so the pD2 and intrinsic activity (IA) of α₁-adrenoceptor agonists were calculated from their ability to contract the rings of aorta in comparison with noradrenaline.

C[C@@H]1c2ccccc2CN1CC1=NCCN1 [Example 1, (R)-2-[(4,5-Dihydro-1H-imidazol-2-yl)methyl]-2,3-dihydro-1-methyl-1H-isoindole]
Post-synaptic PA₂ [1]: 7.3
Ki [2]: 300 pM
Post-synaptic pD₂ [3]: <4
